Experimental data as given in patent US10125134B2 (Mirati Therapeutics, Inc., priority 2016, dated 2018).
Where two headings read alike, the source gives them in different places.

Tests used:
[1] = test system: NCI-H358 cells (express KRas G12C), Phospho-ERK; assay: Cellular inhibition of KRas G12C: Phospho-ERK in NCI-H358 cells; format: cell-based; details: Homo sapiens, pERK(Thr202/Tyr204) normalized with GAPDH, NCI-H358 cells, 3 hours, read-out: IC50
How it was run: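 IC50 derived by 4-parameter fit of GAPDH-normalized pERK(Thr202/Tyr204) signal, as percent of DMSO control. Signal came from in-cell immunodetection with infrared secondaries after 3 h compound exposure of KRas G12C NCI-H358 cells at 0.5% DMSO.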

[2] = biological target: KRas G12C (Homo sapiens, UniProt P01116, C118S/C51S/C80L/G12C); assay: KRas G12C Modification Assay (LCMS detection of covalent adduct); format: binding; details: normalized percent of control; tested at 5 μM concentration for 3 hours
How it was run: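 Covalent modification was read by reverse-phase LC/MS of intact protein after compound exposure, each reaction stopped at its time point with 25 mM acetic acid. Unmodified-protein signal, taken as percent of total, was normalised to untreated protein and reported as POC.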

How did the IC50 ([1]; NCI-H358, 3 h) turn out when `C=CC(=O)N1CCN(c2nc(OC[C@@H]3CCCN3C(C)C)nc3c2CCN(c2cccc4ccccc24)C3)CC1CC#N` (stereo partly drawn) [Example 285, 2-[4-[2-[[(2S)-1-isopropylpyrrolidin-2-yl]methoxy]-7-(1-naphthyl)-6,8-dihydro-5H-pyrido[3,4-d]pyrimidin-4-yl]-1-prop-2-enoyl-piperazin-2-yl]acetonitrile] was run?
The IC50 was 0.1 to 1000 nM.

What about the POC [2] of the same compound?
Its POC is “C (“C”>50% POC)”.

`C=CC(=O)N1CCN(c2nc(OCCCN3CCOCC3)nc3c2CCN(c2cc(O)ccc2OC(C)C)C3)CC1` [Example 96, 1-(4-(7-(5-hydroxy-2-isopropoxyphenyl)-2-(3-morpholinopropoxy)-5,6,7,8-tetrahydropyrido[3,4-d]pyrimidin-4-yl)piperazin-1-yl)prop-2-en-1-one] was tested. Which IC50 [1] did it give?
Its IC50 is over 1000 nM.

And the POC [2]?
The POC was “A (“A”≤25% POC)”.

What does the source list for `C=CC(=O)N1CCN(c2nc(OCCCN3C[C@@H](F)[C@@H](F)C3)nc3c2CCN(c2cc(O)cc4ccccc24)C3)CC1` [Example 208, 1-(4-(2-(3-((3R,4S)-3,4-difluoropyrrolidin-1-yl)propoxy)-7-(3-hydroxynaphthalen-1-yl)-5,6,7,8-tetrahydropyrido[3,4-d]pyrimidin-4-yl)piperazin-1-yl)prop-2-en-1-one]?
IC50 [1]: > 1000 nM; POC [2]: C (“C”>50% POC)

For `C=CC(=O)N1CCN(c2nc(OC[C@@H]3CCCN3C)nc3c2CCN(c2cc(F)ccc2OC(F)(F)F)C3)CC1CC#N` (stereo partly drawn) [Example 225, 2-(1-acryloyl-4-(7-(5-fluoro-2-(trifluoromethoxy)phenyl)-2-(((S)-1-methylpyrrolidin-2-yl)methoxy)-5,6,7,8-tetrahydropyrido[3,4-d]pyrimidin-4-yl)piperazin-2-yl)acetonitrile], which IC50 ([1]; NCI-H358, 3 h) is on record?
Its IC50 is 0.1 to 1000 nM.

What about the POC [2] of the same compound?
The POC was “C (“C”>50% POC)”.

With `C=CC(=O)N1C[C@H]2CC[C@@H](C1)N2c1nc(OC(C)CN(C)C)nc2c1CCN(c1cc(O)cc3ccccc13)C2` (stereo partly drawn) [Example 46, 1-((1R,5S)-8-(2-((1-(dimethylamino)propan-2-yl)oxy)-7-(3-hydroxynaphthalen-1-yl)-5,6,7,8-tetrahydropyrido[3,4-d]pyrimidin-4-yl)-3,8-diazabicyclo[3.2.1]octan-3-yl)prop-2-en-1-one] as the compound, how does the IC50 [1] read?
The IC50 was over 1000 nM.

What about the POC [2] of the same compound?
The POC was “A (“A”≤25% POC)”.

Which results are given for `C=CC(=O)N1C[C@@H](C)N(c2nc(OC[C@@H]3CCCN3C)nc3c2CCN(c2cccc4ccccc24)C3)C[C@@H]1CC#N` [Example 378, 2-((2S,5R)-1-acryloyl-5-methyl-4-(2-(((S)-1-methylpyrrolidin-2-yl)methoxy)-7-(naphthalen-1-yl)-5,6,7,8-tetrahydropyrido[3,4-d]pyrimidin-4-yl)piperazin-2-yl)acetonitrile]?
IC50 ([1]; NCI-H358, 3 h): 0.1 to 1000 nM; POC [2]: C (“C”>50% POC)

Which results are given for `C=CC(=O)N1CCN(c2nc(OC[C@@H]3CCCN3C)nc3c2CCN(c2cnccc2C#N)C3)C[C@@H]1CC#N` [Example 305, 3-(4-((S)-4-acryloyl-3-(cyanomethyl)piperazin-1-yl)-2-(((S)-1-methylpyrrolidin-2-yl)methoxy)-5,6-dihydropyrido[3,4-d]pyrimidin-7(81)-yl)isonicotinonitrile]?
IC50 ([1]; NCI-H358, 3 h): > 1000 nM; POC [2]: C (“C”>50% POC)

What does the source list for `C=CC(=O)N1CCN(c2nc(OCCCO)nc3c2CCN(c2cccc4ccccc24)C3)CC1CC#N` (stereo not shown) [Example 231, 2-(1-acryloyl-4-(2-(3-hydroxypropoxy)-7-(naphthalen-1-yl)-5,6,7,8-tetrahydropyrido[3,4-d]pyrimidin-4-yl)piperazin-2-yl)acetonitrile]?
IC50 [1]: 0.1 to 1000 nM; POC [2]: C (“C”>50% POC)

For `C=CC(=O)N1CCN(c2nc(OC[C@H]3CCCN3C)nc3c2CCN(c2ccccc2C(F)(F)F)C3)CC1CC#N` (stereo partly drawn) [Example 283, 2-(1-acryloyl-4-(2-(((R)-1-methylpyrrolidin-2-yl)methoxy)-7-(2-(trifluoromethyl)phenyl)-5,6,7,8-tetrahydropyrido[3,4-d]pyrimidin-4-yl)piperazin-2-yl)acetonitrile], which IC50 ([1]; NCI-H358, 3 h) is on record?
Its IC50 is 0.1 to 1000 nM.

And the POC [2]?
Its POC is “C (“C”>50% POC)”.

What does the source list for `C=CC(=O)N1CCN(c2nc(OC[C@@]3(C)CCCN3C)nc3c2CCN(c2cccc(F)c2C(F)(F)F)C3)CC1CC#N` (stereo partly drawn) [Example 417, 2-(1-acryloyl-4-(2-(((R)-1,2-dimethylpyrrolidin-2-yl)methoxy)-7-(3-fluoro-2-(trifluoromethyl)phenyl)-5,6,7,8-tetrahydropyrido[3,4-d]pyrimidin-4-yl)piperazin-2-yl)acetonitrile]?
IC50 [1]: 0.1 to 1000 nM; POC [2]: C (“C”>50% POC)

With `C=CC(=O)N1CCN(c2nc(OCCN3CCC(F)(F)CC3)nc3c2CCN(c2cc(O)cc4ccccc24)C3)CC1` [Example 109, 1-(4-(2-(2-(4,4-difluoropiperidin-1-yl)ethoxy)-7-(3-hydroxynaphthalen-1-yl)-5,6,7,8-tetrahydropyrido[3,4-d]pyrimidin-4-yl)piperazin-1-yl)prop-2-en-1-one] as the compound, how does the IC50 ([1]; NCI-H358, 3 h) read?
Its IC50 is over 1000 nM.

And the POC [2]?
The POC was “C (“C”>50% POC)”.

What does the source list for `C=CC(=O)N1CCN(c2nc(OCCCN3C[C@@H]4C[C@H]3CO4)nc3c2CCN(c2cccc4cccc(C)c24)C3)C[C@@H]1CC#N` [Example 369, 2-((S)-4-(2-(3-((1 S,4S)-2-oxa-5-azabicyclo[2.2.1]heptan-5-yl)propoxy)-7-(8-methylnaphthalen-1-yl)-5,6,7,8-tetrahydropyrido[3,4-d]pyrimidin-4-yl)-1-acryloylpiperazin-2-yl)acetonitrile]?
IC50 ([1]; NCI-H358, 3 h): 0.1 to 1000 nM; POC [2]: C (“C”>50% POC)

`C=CC(=O)N1CCN(c2nc(OC[C@@H]3C[C@H](F)CN3C)nc3c2CCN(c2cccc4ccccc24)C3)CC1CC#N` (stereo partly drawn) [Example 221, 2-(1-acryloyl-4-(2-(((2S,4S)-4-fluoro-1-methylpyrrolidin-2-yl)methoxy)-7-(naphthalen-1-yl)-5,6,7,8-tetrahydropyrido[3,4-d]pyrimidin-4-yl)piperazin-2-yl)acetonitrile] was tested. Which IC50 ([1]; NCI-H358, 3 h) did it give?
Its IC50 is 0.1 to 1000 nM.

What about the POC [2] of the same compound?
Its POC is “C (“C”>50% POC)”.

How did the IC50 ([1]; NCI-H358, 3 h) turn out when `C=CC(=O)N1CCN(c2nc(OCCC(=O)N(C)C)nc3c2CCN(c2cccc4cccc(C)c24)C3)C[C@@H]1CC#N` [Example 371, (S)-3-((4-(4-acryloyl-3-(cyanomethyl)piperazin-1-yl)-7-(8-methylnaphthalen-1-yl)-5,6,7,8-tetrahydropyrido[3,4-d]pyrimidin-2-yl)oxy)-N,N-dimethylpropanamide] was run?
The IC50 was 0.1 to 1000 nM.

What about the POC [2] of the same compound?
Its POC is “C (“C”>50% POC)”.

For `C=C(C)C(=O)N1CCN(c2nc(OC[C@@H]3CCCN3C)nc3c2CCN(c2cccc4ccccc24)C3)CC1CC#N` (stereo partly drawn) [Example 261, 2-[1-(2-methylprop-2-enoyl)-4-[2-[[(2S)-1-methylpyrrolidin-2-yl]methoxy]-7-(1-naphthyl)-6,8-dihydro-5H-pyrido[3,4-d]pyrimidin-4-yl]piperazin-2-yl]acetonitrile], which IC50 ([1]; NCI-H358, 3 h) is on record?
Its IC50 is over 1000 nM.

What about the POC [2] of the same compound?
Its POC is “A (“A”≤25% POC)”.

`C=CC(=O)N1CCN(c2nc(OCCCN3CCOCC3)nc3c2CCN(c2cc(O)ccc2SC(F)(F)F)C3)CC1` [Example 214, 1-(4-(7-(5-hydroxy-2-((trifluoromethyl)thio)phenyl)-2-(3-morpholinopropoxy)-5,6,7,8-tetrahydropyrido[3,4-d]pyrimidin-4-yl)piperazin-1-yl)prop-2-en-1-one] was tested. Which IC50 [1] did it give?
The IC50 was over 1000 nM.

What about the POC [2] of the same compound?
Its POC is “C (“C”>50% POC)”.

With `C=CC(=O)N1CCN(c2nc(N3CCOCC3)nc3c2CCN(c2cc(O)cc4ccccc24)C3)CC1` [Example 118, 1-(4-(7-(3-hydroxynaphthalen-1-yl)-2-morpholino-5,6,7,8-tetrahydropyrido[3,4-d]pyrimidin-4-yl)piperazin-1-yl)prop-2-en-1-one] as the compound, how does the IC50 ([1]; NCI-H358, 3 h) read?
Its IC50 is over 1000 nM.

What about the POC [2] of the same compound?
The POC was “A (“A”≤25% POC)”.
